Data taken from ChEMBL document CHEMBL5576069, “Novel 4-[4-(4-methylpiperazin-1-yl)phenyl]-6-arylpyrimidine derivatives and their antitrypanosomal activities against T.brucei” (Bioorg Med Chem Lett, 2024).
Activity calls are given as the source filed them. The calls are words filed in the database; no cut-off is given here.

Legend:
[1] = Cytotoxicity against rat L6 cells; type: toxicity, cell-based
Trypanosoma cruzi = experiment: Antitrypanosomal activity against Trypanosoma cruzi Tulahuen C4; type: functional, organism-based
[2] = test system: Trypanosoma brucei rhodesiense; experiment: Antitrypanosomal activity against Trypanosoma brucei rhodesiense STIB900 trypomastigotes incubated for 70 hrs by resazurin dye based microplate fluorometer; type: functional, organism-based; details: STIB900, 70 h
Leishmania donovani = experiment: Antitrypanosomal activity against Leishmania donovani amastigotes MHOM-ET-67/L8; type: functional, organism-based
[3] = test system: Trypanosoma brucei rhodesiense; experiment: Antitrypanosomal activity against Trypanosoma brucei rhodesiense; type: functional, organism-based

Structure (SMILES) | EC50 [1] [µM] | Activity (Trypanosoma cruzi) | EC50 [2] [µM] | Activity (Leishmania donovani) | EC50 [3] [µM] | EC90 [3] [µM]
CN1CCN(c2ccc(-c3cc(-c4cccc(Cl)c4)ncn3)cc2)CC1 | 36.3 | inactive | 1.7 | inactive | – | –
CN1CCN(c2ccc(-c3cc(-c4ccccc4)nc(N)n3)cc2)CC1 | 30 | inactive | 3.6 | inactive | – | –
CN1CCN(c2ccc(-c3cc(-c4ccccc4Cl)ncn3)cc2)CC1 | 42.6 | inactive | 5.8 | inactive | – | –
CN1CCN(c2ccc(-c3cc(-c4ccc(Cl)cc4Cl)ncn3)cc2)CC1 | > 100 | inactive | 2.4 | inactive | – | –
CN1CCN(c2ccc(-c3cc(-c4cccc(Br)c4)nc(N)n3)cc2)CC1 | 33.6 | inactive | 1.1 | inactive | – | –
CN1CCN(c2ccc(-c3cc(-c4cccc(Br)c4)ncn3)cc2)CC1 | 64.5 | inactive | 1.6 | inactive | – | –
Cc1nc(-c2ccc(N3CCN(C)CC3)cc2)cc(-c2ccccc2[N+](=O)[O-])n1 | 40.2 | inactive | 13.5 | inactive | – | –
Cc1nc(-c2ccc(N3CCN(C)CC3)cc2)cc(-c2ccc(Cl)cc2Cl)n1 | > 100 | inactive | 10.1 | inactive | – | –
CN1CCN(c2ccc(-c3cc(-c4ccccc4[N+](=O)[O-])nc(N)n3)cc2)CC1 | 7.1 | inactive | 14 | inactive | – | –
CN1CCN(c2ccc(-c3cc(-c4ccc(Br)cc4)ncn3)cc2)CC1 | 14.4 | inactive | 0.6 | inactive | – | –
CN1CCN(c2ccc(-c3cc(-c4ccccc4Br)nc(N)n3)cc2)CC1 | 11.6 | inactive | 10.3 | inactive | – | –
CN1CCN(c2ccc(-c3cc(-c4ccc(Br)cc4)nc(N)n3)cc2)CC1 | 5.1 | inactive | 1.6 | inactive | – | –
Cc1nc(-c2ccc(N3CCN(C)CC3)cc2)cc(-c2cccc(Cl)c2Cl)n1 | 37.3 | inactive | 3.6 | inactive | – | –
CN1CCN(c2ccc(-c3cc(-c4cccc(Cl)c4Cl)ncn3)cc2)CC1 | 18.1 | inactive | 1.8 | inactive | – | –
COc1cc([C@@H]2c3cc4c(cc3[C@H](O)[C@H]3COC(=O)[C@H]23)OCO4)cc(OC)c1OC [PODOFILOX] | 0.02 | – | – | – | – | –
CN1CCN(c2ccc(-c3cc(-c4ccccc4)ncn3)cc2)CC1 | 42.7 | inactive | 3.8 | inactive | – | –
Cc1nc(-c2ccc(Cl)cc2)cc(-c2ccc(N3CCN(C)CC3)cc2)n1 | 5.3 | inactive | 0.6 | inactive | – | –
Cc1nc(-c2ccc(N3CCN(C)CC3)cc2)cc(-c2cccc(Cl)c2)n1 | 20.8 | inactive | 1.7 | inactive | – | –
CN1CCN(c2ccc(-c3cc(-c4ccccc4Cl)nc(N)n3)cc2)CC1 | 40 | inactive | 20.2 | inactive | – | –
Cc1nc(-c2ccc(Br)cc2)cc(-c2ccc(N3CCN(C)CC3)cc2)n1 | 11.2 | inactive | 0.9 | inactive | – | –
CN1CCN(c2ccc(-c3cc(-c4ccccc4Br)ncn3)cc2)CC1 | 39.6 | inactive | 9.7 | inactive | – | –
CSc1ccc(OCc2ncc([N+](=O)[O-])n2C)cc1 [FEXINIDAZOLE] | – | – | – | – | 0.76 | 0.76
CN1CCN(c2ccc(-c3cc(-c4ccc(Cl)cc4)nc(N)n3)cc2)CC1 | 13 | inactive | 1.8 | inactive | – | –
Cc1nc(-c2ccc(N3CCN(C)CC3)cc2)cc(-c2cccc(Br)c2)n1 | 21.1 | inactive | 1.6 | inactive | – | –
Cc1nc(-c2ccc(N3CCN(C)CC3)cc2)cc(-c2ccccc2Br)n1 | 35.2 | inactive | 4.3 | inactive | – | –
CN1CCN(c2ccc(-c3cc(-c4ccccc4[N+](=O)[O-])ncn3)cc2)CC1 | 46.9 | inactive | 15.2 | inactive | – | –
CN1CCN(c2ccc(-c3cc(-c4cccc(Cl)c4)nc(N)n3)cc2)CC1 | 79.7 | inactive | 1.7 | inactive | – | –
CN1CCN(c2ccc(-c3cc(-c4ccc(Cl)cc4Cl)nc(N)n3)cc2)CC1 | 7.4 | inactive | 0.5 | inactive | – | –
Cc1nc(-c2ccccc2)cc(-c2ccc(N3CCN(C)CC3)cc2)n1 | 79.7 | inactive | 2.8 | inactive | – | –
CN1CCN(c2ccc(-c3cc(-c4ccc(Cl)cc4)ncn3)cc2)CC1 | 16.4 | inactive | 0.5 | inactive | – | –
